# According to ChEMBL document CHEMBL1201862, “PubChem BioAssay data set” (2004):
#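 These data come from cells grown in 96-well plates and exposed to compound for 48 hours at five concentrations. The concentration for 50% growth inhibition is given as GI50.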 Calls of active or inactive are those of the source. Rule as the data show it: active = GI50 up to about 1.1 µM and inactive = higher.
# How the values were obtained:
# Assay in all cases: DTP human tumour cell line panel, 48 h
# UACC-257 = system: UACC-257
# RXF 393 = system: RXF 393
# M14 = system: M14
# NCI/ADR-RES = system: NCI/ADR-RES
# MDA-MB-435 = system: MDA-MB-435
# IGROV-1 = system: IGROV-1
# HT-29 = system: HT-29
# HL-60 = system: HL-60
# OVCAR-5 = system: OVCAR-5
# T47D = system: T47D
# NCI-H460 = system: NCI-H460
# NCI-H522 = system: NCI-H522
# SK-MEL-28 = system: SK-MEL-28
# HCT-15 = system: HCT-15
# ACHN = system: ACHN
# LOX IMVI = system: LOX IMVI
# K562 = system: K562
# BT-549 = system: BT-549
# Hs-578T = system: Hs-578T
SMILES,GI50 (UACC-257),GI50 (RXF 393),GI50 (M14),GI50 (NCI/ADR-RES),GI50 (MDA-MB-435),GI50 (IGROV-1),GI50 (HT-29),GI50 (HL-60),GI50 (OVCAR-5),GI50 (T47D),GI50 (NCI-H460),GI50 (NCI-H522),GI50 (SK-MEL-28),GI50 (HCT-15) [µM],GI50 (ACHN),GI50 (LOX IMVI),GI50 (K562),GI50 (BT-549),GI50 (Hs-578T)
COc1ccc(NC(C)=O)cc1N1C(=O)/C(=C\c2cccc(Oc3ccccc3)c2)SC1c1ccccc1 (stereo not drawn),40.6 µM (inactive),39.7 µM (inactive),34.1 µM (inactive),19.2 µM (inactive),23.3 µM (inactive),27.4 µM (inactive),18.3 µM (inactive),16.9 µM (inactive),29.3 µM (inactive),23.4 µM (inactive),36.4 µM (inactive),28.4 µM (inactive),28.3 µM (inactive),33.1,31.3 µM (inactive),13.4 µM (inactive),19.8 µM (inactive),30.5 µM (inactive),
CN(C(=O)c1cccs1)C(=S)N1CCN(c2ccccc2)CC1,> 100 µM (inactive),> 100 µM (inactive),> 100 µM (inactive),,> 100 µM (inactive),> 100 µM (inactive),> 100 µM (inactive),68.5 µM (inactive),> 100 µM (inactive),> 100 µM (inactive),> 100 µM (inactive),> 100 µM (inactive),> 100 µM (inactive),> 100,> 100 µM (inactive),> 100 µM (inactive),> 100 µM (inactive),> 100 µM (inactive),42.7 µM (inactive)
O=C(Nc1cc2c(=O)oc3ccccc3c2oc1=O)c1cccnc1,> 100 µM (inactive),> 100 µM (inactive),79.6 µM (inactive),> 100 µM (inactive),> 100 µM (inactive),> 100 µM (inactive),> 100 µM (inactive),48 µM (inactive),> 100 µM (inactive),> 100 µM (inactive),> 100 µM (inactive),> 100 µM (inactive),> 100 µM (inactive),> 100,50 µM (inactive),> 100 µM (inactive),> 100 µM (inactive),> 100 µM (inactive),
O=C(Cc1ccc(O)c(O)c1)NCc1c[nH]c2ccccc12,70.5 µM (inactive),29 µM (inactive),35.5 µM (inactive),46.6 µM (inactive),,,> 100 µM (inactive),27 µM (inactive),> 100 µM (inactive),> 100 µM (inactive),40.6 µM (inactive),32.6 µM (inactive),83.6 µM (inactive),61.1,,,38.5 µM (inactive),43.9 µM (inactive),> 100 µM (inactive)
CC(C)[C@H](O)C(=O)N[C@H]1Cc2ccc3c(c2)[C@]24C5=C(N=C(O5)[C@H](C(C)C)NC1=O)c1nc(Cl)c(o1)-c1c(Cl)[nH]c5cccc(c15)-c1cccc2c1N[C@H]4O3,0.0229 µM (active),,0.0311 µM (active),0.257 µM (active),,0.00342 µM (active),0.0111 µM (active),,0.0242 µM (active),3.9 µM (inactive),0.0119 µM (active),0.0022 µM (active),0.00718 µM (active),0.0392,0.0469 µM (active),0.00392 µM (active),0.00427 µM (active),0.00863 µM (active),0.00256 µM (active)
CN(C)CCNC(=O)Cn1ccc(=O)c2c([N+](=O)[O-])cccc21,> 100 µM (inactive),> 100 µM (inactive),> 100 µM (inactive),,> 100 µM (inactive),> 100 µM (inactive),> 100 µM (inactive),> 100 µM (inactive),> 100 µM (inactive),> 100 µM (inactive),> 100 µM (inactive),> 100 µM (inactive),> 100 µM (inactive),> 100,> 100 µM (inactive),> 100 µM (inactive),> 100 µM (inactive),> 100 µM (inactive),> 100 µM (inactive)
